Test results from ChEMBL document CHEMBL1201862, “PubChem BioAssay data set” (2004).
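The compound was tested at five concentrations on cells cultured in 96-well plates, with a 48-hour exposure period. The concentration for 50% growth inhibition is given as GI50.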 Activity calls are given as the source filed them. No stated cut-off is given here; in the data, active = GI50 up to about 1.1 µM and inactive = higher.

Columns and labels:
Test in all cases: NCI-60 cell line screen, 48 h
TK-10 = system: TK-10
UO-31 = system: UO-31
U-251 = system: U-251
BT-549 = system: BT-549
SK-MEL-2 = system: SK-MEL-2
CCRF-CEM = system: CCRF-CEM
RXF 393 = system: RXF 393
NCI-H460 = system: NCI-H460
SK-MEL-5 = system: SK-MEL-5
COLO 205 = system: COLO 205
HCT-116 = system: HCT-116
UACC-62 = system: UACC-62
OVCAR-5 = system: OVCAR-5
A549 = system: A549
K562 = system: K562
UACC-257 = system: UACC-257
LOX IMVI = system: LOX IMVI
NCI-H23 = system: NCI-H23
HCT-15 = system: HCT-15
SK-OV-3 = system: SK-OV-3

SMILES | GI50 (TK-10) | GI50 (UO-31) | GI50 (U-251) | GI50 (BT-549) | GI50 (SK-MEL-2) | GI50 (CCRF-CEM) | GI50 (RXF 393) | GI50 (NCI-H460) | GI50 (SK-MEL-5) | GI50 (COLO 205) | GI50 (HCT-116) | GI50 (UACC-62) | GI50 (OVCAR-5) | GI50 (A549) | GI50 (K562) | GI50 (UACC-257) | GI50 (LOX IMVI) | GI50 (NCI-H23) | GI50 (HCT-15) [µM] | GI50 (SK-OV-3)
COc1ccc2oc(=O)cc(C)c2c1 | > 100 µM (inactive) | 91.4 µM (inactive) | > 100 µM (inactive) | > 100 µM (inactive) | > 100 µM (inactive) | > 100 µM (inactive) | > 100 µM (inactive) | > 100 µM (inactive) | > 100 µM (inactive) | > 100 µM (inactive) | > 100 µM (inactive) | > 100 µM (inactive) | > 100 µM (inactive) | > 100 µM (inactive) | > 100 µM (inactive) | > 100 µM (inactive) | > 100 µM (inactive) | > 100 µM (inactive) |  | 
NC(C(=O)OC(=O)c1ccccc1)C(=O)OC(=O)c1ccccc1 | > 100 µM (inactive) | > 100 µM (inactive) | > 100 µM (inactive) | > 100 µM (inactive) | > 100 µM (inactive) | > 100 µM (inactive) | > 100 µM (inactive) | > 100 µM (inactive) | > 100 µM (inactive) | > 100 µM (inactive) | > 100 µM (inactive) |  | > 100 µM (inactive) | > 100 µM (inactive) | > 100 µM (inactive) | > 100 µM (inactive) | > 100 µM (inactive) | > 100 µM (inactive) | > 100 | 
O=c1c(Cc2c(O)ccc3ccccc23)nnc2sc(-c3nn4c(=O)c(Cc5c(O)ccc6ccccc56)nnc4s3)nn12 | 37.3 µM (inactive) | > 100 µM (inactive) | 26.2 µM (inactive) | 25.4 µM (inactive) | 13.4 µM (inactive) | 30.5 µM (inactive) | 22.9 µM (inactive) |  |  |  | > 100 µM (inactive) | 29 µM (inactive) | > 100 µM (inactive) | > 100 µM (inactive) | > 100 µM (inactive) | > 100 µM (inactive) | > 100 µM (inactive) | 54.7 µM (inactive) | > 100 | 
CCc1c(CNc2ccc(C(=O)NC(CC(=O)O)C(=O)O)cc2)ccc2nc(N)nc(N)c12 (configuration not stated) | 15.3 µM (inactive) | 0.75 µM (active) |  | 25.4 µM (inactive) | > 100 µM (inactive) | < 0.0128 µM (active) | > 4.65 µM (inactive) | < 0.0158 µM (active) | < 0.0346 µM (active) | 16.7 µM (inactive) | < 0.01 µM (active) | < 0.0177 µM (active) | 1.82 µM (inactive) | < 0.0169 µM (active) | < 0.01 µM (active) | 5.19 µM (inactive) | < 0.0162 µM (active) | < 0.0291 µM (active) | < 0.0164 | > 20 µM (inactive)
CC1=CC(O)CC(C)(C)C1/C=C/C(C)=C/C=C/C(C)=C/C=C/C=C(C)/C=C/C=C(C)/C=C/C1=C(C)CC(O)CC1(C)C (configuration not stated) | 57.8 µM (inactive) | 34 µM (inactive) |  | 17.8 µM (inactive) | 25 µM (inactive) | 26.2 µM (inactive) | 18.5 µM (inactive) | 32.6 µM (inactive) | 16.6 µM (inactive) | 20.7 µM (inactive) | 15.7 µM (inactive) | 15 µM (inactive) | 34.8 µM (inactive) | 35.6 µM (inactive) | 38.3 µM (inactive) | 24.9 µM (inactive) | 56.1 µM (inactive) | 24.7 µM (inactive) | 19.7 | 40.8 µM (inactive)
CN(C)CCNc1ncnc2[nH]c(-c3ccc4ccccc4c3)nc12 | > 100 µM (inactive) | > 100 µM (inactive) | > 100 µM (inactive) | > 100 µM (inactive) | > 100 µM (inactive) | > 100 µM (inactive) | > 100 µM (inactive) | > 100 µM (inactive) | > 100 µM (inactive) | > 100 µM (inactive) | > 100 µM (inactive) | > 100 µM (inactive) | > 100 µM (inactive) | > 100 µM (inactive) | > 100 µM (inactive) | > 100 µM (inactive) | > 100 µM (inactive) | > 100 µM (inactive) | > 100 | > 100 µM (inactive)
CSc1ccc(/C=C2\N=C(c3ccccc3)N(c3nc4c(Cl)cc(Cl)cc4s3)C2=O)cc1 | 39.2 µM (inactive) | 22.2 µM (inactive) | 17.1 µM (inactive) | 21.5 µM (inactive) | 20.2 µM (inactive) | 7.74 µM (inactive) | 41 µM (inactive) | 25.6 µM (inactive) | 16.2 µM (inactive) | 33.4 µM (inactive) | 19.1 µM (inactive) | 24.4 µM (inactive) | 31.1 µM (inactive) | 21.4 µM (inactive) | 26.7 µM (inactive) | 25.2 µM (inactive) | 29.9 µM (inactive) |  | 28.5 | 25.9 µM (inactive)
CCOC(=O)c1ccc(NCC#CCN2CCCCC2)cc1 |  | > 100 µM (inactive) | > 100 µM (inactive) | > 100 µM (inactive) | > 100 µM (inactive) | 19.7 µM (inactive) | > 100 µM (inactive) |  | 38.5 µM (inactive) | 41.9 µM (inactive) | 96.8 µM (inactive) | 50.1 µM (inactive) | 83.6 µM (inactive) | > 100 µM (inactive) | 26.8 µM (inactive) |  | > 100 µM (inactive) | > 100 µM (inactive) | 89.9 | > 100 µM (inactive)
Cc1n[nH]c(=O)n1-n1cccc1 | > 100 µM (inactive) | > 100 µM (inactive) | > 100 µM (inactive) | > 100 µM (inactive) | > 100 µM (inactive) | > 100 µM (inactive) | > 100 µM (inactive) | > 100 µM (inactive) | > 100 µM (inactive) | > 100 µM (inactive) | > 100 µM (inactive) | > 100 µM (inactive) | > 100 µM (inactive) | > 100 µM (inactive) | > 100 µM (inactive) | > 100 µM (inactive) | > 100 µM (inactive) | > 100 µM (inactive) | > 100 | > 100 µM (inactive)
CCOC(=O)NC(Nc1ccc(F)c(F)c1)(C(=O)OCC)C(F)(F)F (configuration not stated) | > 100 µM (inactive) | > 65.6 µM (inactive) | > 100 µM (inactive) | > 100 µM (inactive) | 17.5 µM (inactive) | > 100 µM (inactive) | > 100 µM (inactive) | > 100 µM (inactive) | 13.8 µM (inactive) | > 60.4 µM (inactive) | > 40.8 µM (inactive) | 0.186 µM (active) | > 100 µM (inactive) | > 100 µM (inactive) | 17.8 µM (inactive) | > 100 µM (inactive) | 0.361 µM (active) | > 100 µM (inactive) | > 100 | > 100 µM (inactive)
COc1ccccc1N1C(=O)/C(=C\c2cccc(Oc3ccccc3)c2)SC1c1ccccc1 (configuration not stated) | > 100 µM (inactive) | 51.3 µM (inactive) | 38.4 µM (inactive) | 29.8 µM (inactive) | 29.9 µM (inactive) |  | 56.9 µM (inactive) | 49 µM (inactive) | 14.4 µM (inactive) | 15.3 µM (inactive) | 16.5 µM (inactive) | 5.75 µM (inactive) | > 100 µM (inactive) | 34.3 µM (inactive) | 15 µM (inactive) | 31.3 µM (inactive) | 21.6 µM (inactive) | 18.3 µM (inactive) | 47.2 | 47.4 µM (inactive)
Clc1cc(Cl)cc(/C=N/C23CC4CC(CC(C4)C2)C3)c1 | > 10 µM (inactive) |  | > 10 µM (inactive) | > 10 µM (inactive) | > 10 µM (inactive) | > 10 µM (inactive) | > 10 µM (inactive) | > 10 µM (inactive) | > 10 µM (inactive) | > 10 µM (inactive) | > 10 µM (inactive) | > 10 µM (inactive) | > 10 µM (inactive) | > 10 µM (inactive) | > 10 µM (inactive) | > 10 µM (inactive) | > 10 µM (inactive) | > 10 µM (inactive) | > 10 | > 10 µM (inactive)
O=C(O)CC(Sc1ccccc1)c1ccccc1 (configuration not stated) | > 100 µM (inactive) | > 100 µM (inactive) | > 100 µM (inactive) | > 100 µM (inactive) | > 100 µM (inactive) |  | > 100 µM (inactive) |  | > 100 µM (inactive) | > 100 µM (inactive) | > 100 µM (inactive) | > 100 µM (inactive) | > 100 µM (inactive) | > 100 µM (inactive) | > 100 µM (inactive) |  | > 100 µM (inactive) | > 100 µM (inactive) | > 100 | > 100 µM (inactive)
CCOc1ccccc1NC(=O)C(=O)C(/C(=N/N)C(=O)OC)c1nc2ccc([N+](=O)[O-])cc2nc1O (configuration not stated) | > 100 µM (inactive) |  | > 100 µM (inactive) | > 100 µM (inactive) | > 100 µM (inactive) | > 100 µM (inactive) | > 100 µM (inactive) | > 100 µM (inactive) | > 100 µM (inactive) |  | > 100 µM (inactive) | > 100 µM (inactive) | > 100 µM (inactive) | > 100 µM (inactive) | > 100 µM (inactive) | > 100 µM (inactive) | > 100 µM (inactive) |  | > 100 | > 100 µM (inactive)
CCCCCCCCCCCCCCCCOP(=O)([O-])OCC[N+](C)(C)C [MILTEFOSINE] | 2.1 µM (inactive) | 20.6 µM (inactive) | 15.3 µM (inactive) | 5.35 µM (inactive) | 21 µM (inactive) |  | 5.9 µM (inactive) | 6 µM (inactive) | 23.8 µM (inactive) | 5.58 µM (inactive) | 18.2 µM (inactive) | 20.2 µM (inactive) | 8.17 µM (inactive) | 7.11 µM (inactive) | 39 µM (inactive) | 30.6 µM (inactive) | 21.5 µM (inactive) | 33.3 µM (inactive) | 10.5 | 8.91 µM (inactive)
